US11260057B2, “Combination comprising palbociclib and 6-(2,4-dichlorophenyl)-5-[4-[(3S)-1-(3-fluoropropyl)pyrrolidin-3-yl]oxyphenyl]-8,9-dihydro-7H-benzo[7] annulene-2-carboxylic acid and its use for the treatment of cancer” (SANOFI, priority 2017, dated 2022)

Legend:
[1] = tested on: MCF7-Y537S human breast cancer cell line xenograft; assay: Anti-tumor efficacy against subcutaneous MCF7-Y537S human breast cancer cell line xenograft in female nude mice; type: in vivo; parameters: key to Biological Interpretation: Active: ΔT/ΔC≤40% is considered as therapeutically active; Very active: ΔT/ΔC<0% is considered as tumor regression (very active); Inactive: ΔT/ΔC>40% is considered as therapeutically inactive; settings: for Tumor volume changes from baseline: Median: compound (1) 5 mg/kg BID, palbociclib 100 mg/kg QD, PO; for Biological Interpretation: based on ΔT/ΔC at day 51; for Biological Interpretation / ΔT/ΔC in % at day 51 / Regressions Complete / Regressions Partial: compound (1) 5 mg/kg PO BID, palbociclib 100 mg/kg PO QD; for ΔT/ΔC in % at day 51: days 22 to 51; for Regressions Complete: mice with complete regression/evaluable mice; for Regressions Complete / Regressions Partial: 30 days; for Regressions Partial: mice with partial regression/evaluable mice
Description: In the present study, the anti-tumor efficacy of 6-(2,4-dichlorophenyl)-5-[4-[(3S)-1-(3-fluoropropyl)pyrrolidin-3-yl]oxyphenyl]-8,9-dihydro-7H-benzo[7]annulene-2-carboxylic acid (“compound (1)”), combined with the cyclin-dependent kinase 4 (CDK4) inhibitor palbociclib, was investigated after 30 days treatment against a subcutaneous MCF7-Y537S human breast cancer cell line xenograft in female nude mice.
The treated groups included compound (1) at 5 mg/kg alone, palbociclib at 100 mg/kg alone, and the combination of compound (1) and palbociclib at the same dose and regime.
Compound (1) was orally dosed twice a day (BID) and palbociclib was orally dosed once a day (QD) for 30 days. Anti-tumor efficacy was evaluated by tumor volume measurement.
Female athymic nude mice were obtained from Harlan (Indianapolis, Ind., USA). Animals were allowed to acclimate for at least four days before the study enrollment. Mice were 12 to 13 weeks old and weighed between 20.2 and 27.3 grams at the beginning of the treatments. These animals were housed under conditions outlined in the NIH Guide for Care and Use of Laboratory Animals in compliance with the USDA Laboratory Animal Welfare Act.
Parental MCF7 cells were obtained from the American Type Culture Collection (ATCC® HTB-22™). MCF7-Y537S (ESR1) cell line was MCF7 cells expressing the ER.Y537S variant that was generated by Sanofi Biology Discovery Group. Y537S mutation was introduced in ESR1 construct (GenBank NM_000125.3) by site directed mutagenesis (Toy W. et al., Cancer Discovery, 2017, 7, 277-287). The construct was transfected in MCF7 cells which were selected for their growth in absence of estradiol. MCF-Y537S is an ESR1 mutation that confers estrogen-independent activity to ERα (Estrogen Receptor alpha) and contributes to endocrine resistant disease (Robinson D. R. et al., Nat Genet., 2013, 45 (12), 1446-1451). The cells were grown in Eagle's Minimum Essential Medium (EMEM) supplemented with 10% fetal bovine serum (FBS), human Insulin, in 5% CO2 at 37° C. The cells were harvested in 0.25% Trypsin EDTA and washed by Dulbecco's Phosphate Buffered Saline (DPBS) and re-suspended in DPBS with 50% matrigel (Becton Dickinson catalog No. 356234, lot No. 32277). The cells (20×10^6 cells/per mouse) were subcutaneously (SC) implanted into the right flank of female nude mice.
When the MCF7-Y537S tumors were established, the tumors were reserved as tumor stocks for fragment implantation. The tumors were serially propagated through fragment tissue transplantation subcutaneously. The fragment tumor tissues were subcutaneously implanted into the right flank of female nude mice. 50 mice were assigned in this experiment.
Compound (1) and palbociclib (commercially available, marketed under the tradename Ibrance®) were formulated as follows: […]
Compound (1) was prepared in Vehicle A, then Solutol HS15 (purchased from Sigma) was added to the final concentration 5%, and the solution was left under stirring for an hour for complete dissolution. After that, vehicle B was added. The final pH was 5.5.
Palbociclib was prepared in Vehicle A, then Solutol HS15 was added to the final concentration 5%, and the solution was left under stirring for an hour for complete dissolution. After that, vehicle B was added. The final pH was 5.5.
The animals required for experiment (plus extra) were pooled and implanted with MCF7-Y537S tumor fragment tissues on day 0. On day 21 post implantation, the mice were pooled and randomly distributed to the treatment and control groups (10 mice per group), where median tumor volumes for each group ranged from 202.5 to 211.5 mm^3. Treatments of compound (1) and palbociclib were initiated on day 22. Compound (1) was orally administered at 5 mg/kg BID (at least 5 hours apart) and palbociclib was orally administered at 100 mg/kg QD, for 30 days. Animal body weight was assessed daily.
The dosages are expressed in mg/kg and based on daily body weight per animal. Vehicle treated animals were used as controls. […]

[2] = Tolerability (body weight change, deaths) in the MCF7-Y537S xenograft study in nude mice; type: in vivo; settings: compound (1) 5 mg/kg PO BID, palbociclib 100 mg/kg PO QD; for Average body weight change in % per group at nadir: days 22 to 51 (30 days); for day of nadir (of average body weight change): day post implantation, days 22 to 51; for Unscheduled death (Day of death): dead/total mice, footnote: non-drug related death or terminations, 30 days
Description: The animals required for experiment (plus extra) were pooled and implanted with MCF7-Y537S tumor fragment tissues on day 0. […] Animal body weight was assessed daily.
The dosages are expressed in mg/kg and based on daily body weight per animal. Vehicle treated animals were used as controls. Mice were checked daily and adverse clinical reactions noted. Individual mice were weighed daily until the end of the experiment. Mice would be euthanized when morbid or weight loss ≥20% was observed. Tumors were measured with a caliper twice weekly until final sacrifice. When a tumor size reached approximately 2000 mm^3 or when there are animal health issues (40% area of a tumor ulcerated), animals would be euthanized and date of death recorded. Solid tumor volumes were estimated from two dimensional tumor measurements and calculated according to the following equation: […]
Animal body weight included the tumor weight.

Compound	Tumor volume changes from baseline: Median ([1]; Day 27)	Tumor volume changes from baseline: Median ([1]; Day 30)	Tumor volume changes from baseline: Median ([1]; Day 34)	Tumor volume changes from baseline: Median ([1]; Day 37)	Tumor volume changes from baseline: Median ([1]; Day 41)	Tumor volume changes from baseline: Median ([1]; Day 44)	Tumor volume changes from baseline: Median ([1]; Day 49)	Tumor volume changes from baseline: Median ([1]; Day 51)	Biological Interpretation [1]	ΔT/ΔC in % at day 51 [1]	Regressions Complete [1]	Regressions Partial [1]	Average body weight change in % per group at nadir [2]	day of nadir (of average body weight change) [2]	Unscheduled death (Day of death) [2]
O=C(O)c1ccc2c(c1)CCCC(c1ccc(Cl)cc1Cl)=C2c1ccc(O[C@H]2CCN(CCCF)C2)cc1 [Compound (1), 6-(2,4-dichlorophenyl)-5-[4-[(3S)-1-(3-fluoropropyl)pyrrolidin-3-yl]oxyphenyl]-8,9-dihydro-7H-benzo[7]annulene-2-carboxylic acid]	114.0 mm^3	171.5 mm^3	270.5 mm^3	336.0 mm^3	440.0 mm^3	498.5 mm^3	727.5 mm^3	782.0 mm^3	Inactive	59%	0/8	0/8	−1.7%	22	2/10
CC(=O)c1c(C)c2cnc(Nc3ccc(N4CCNCC4)cn3)nc2n(C2CCCC2)c1=O [Palbociclib, 6-acetyl-8-cyclopentyl-5-methyl-2-[5-(1-piperazinyl)pyridine-2-ylamino]pyrido[2,3-d]pyrimidin-7(8H)-one]	68.5 mm^3	98.0 mm^3	121.5 mm^3	132.0 mm^3	193.5 mm^3	249.5 mm^3	298.5 mm^3	363.5 mm^3	Active	27%	0/10	0/10	−2.0%	22	0/10
